Reference: patent US8658638B2, “Mineralocorticoid receptor antagonist and methods of use” (priority 2009, dated 2014)

Experiments:
[1] = biological target: T1, human AR (androgen receptor) (Homo sapiens, UniProt P10275); experiment: Steroid nuclear hormone receptor binding assay, AR; conditions: [3H]-methyltrienolone, HEK293 lysate overexpressing human AR
T1 construct: expressed in transfected cells; host or cells: HEK293 (293-AR lysate)
T1 sequence (P10275 1-920): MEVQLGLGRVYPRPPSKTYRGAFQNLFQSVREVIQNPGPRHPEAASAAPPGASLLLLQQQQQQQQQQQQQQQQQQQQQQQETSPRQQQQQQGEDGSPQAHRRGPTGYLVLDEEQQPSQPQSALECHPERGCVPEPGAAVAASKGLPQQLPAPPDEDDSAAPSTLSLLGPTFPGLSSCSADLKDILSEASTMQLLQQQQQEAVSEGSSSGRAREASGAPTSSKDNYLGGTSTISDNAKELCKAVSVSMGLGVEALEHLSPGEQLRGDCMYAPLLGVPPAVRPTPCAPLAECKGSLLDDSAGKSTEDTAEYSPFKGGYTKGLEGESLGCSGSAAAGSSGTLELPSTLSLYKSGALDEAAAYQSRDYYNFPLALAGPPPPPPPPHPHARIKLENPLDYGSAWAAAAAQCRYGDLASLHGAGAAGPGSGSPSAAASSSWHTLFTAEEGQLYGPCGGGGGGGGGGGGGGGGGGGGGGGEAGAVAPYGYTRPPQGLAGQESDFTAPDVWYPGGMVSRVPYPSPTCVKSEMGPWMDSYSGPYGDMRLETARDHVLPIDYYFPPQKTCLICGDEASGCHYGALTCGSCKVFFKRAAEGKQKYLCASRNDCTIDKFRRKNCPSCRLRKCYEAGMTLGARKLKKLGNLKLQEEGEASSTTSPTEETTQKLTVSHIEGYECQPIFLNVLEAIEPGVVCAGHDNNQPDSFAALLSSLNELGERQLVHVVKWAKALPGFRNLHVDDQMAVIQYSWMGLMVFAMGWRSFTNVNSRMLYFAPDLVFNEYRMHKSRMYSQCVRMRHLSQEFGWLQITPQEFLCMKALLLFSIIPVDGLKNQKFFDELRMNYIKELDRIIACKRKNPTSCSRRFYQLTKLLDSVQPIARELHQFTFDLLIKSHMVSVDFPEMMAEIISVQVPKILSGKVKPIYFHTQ
Method: Cell lysates from human embryonic kidney HEK293 cells overexpressing human MR (mineralocorticoid receptor), GR (glucocorticoid receptor), AR (androgen receptor), or PR (progesterone receptor) are used for receptor-ligand competition binding assays to determine Ki values.
Briefly, steroid receptor competition binding assays are run in a buffer containing 20 mM HEPES buffer (pH=7.6), 0.2 mM EDTA, 75 mM NaCl, 1.5 mM MgCl2, 20% glycerol, 20 mM sodium molybdate, 0.2 mM DTT (dithiothreitol), 20 μg/mL aprotinin and 20 μg/mL leupeptin (assay buffer). Typically, steroid receptor binding assays include radio-labeled ligands, such as 0.25 nM [^3H]-aldosterone for MR binding, 0.7 nM [^3H]-dexamethasone for GR binding, 0.36 nM [^3H]-methyltrienolone for AR binding, and 0.29 nM [^3H]-methyltrienolone for PR binding, and either 20 μg 293-MR lysate, 20 μg 293-GR lysate, 22 μg 293-AR lysate, or 40 μg 293-PR lysate per well. Assays are typically run in 96-well format. Competing test compounds are added at various concentrations ranging from about 0.01 nM to 10 μM. Non-specific binding is determined in the presence of 500 nM aldosterone for MR binding, 500 nM dexamethasone for GR binding, or 500 nM methyltrienolone for AR and PR binding. […] After an incubation of 2 hours, plates are read in a Wallac Microbeta counter. […]

[2] = test system: uni-nephrectomized Sprague Dawley rats; experiment: In vivo model of aldosterone mediated renal disease; conditions: 10 mg/kg/day x 28 days, oral gavage, aldosterone infusion, 6% salt diet, rat
Method: Male uni-nephrectomized Sprague Dawley rats (240-280 g) are housed individually with ad lib house water and rodent 5001 diet for one week. After acclimation, baseline 24 h urine samples are collected and analyzed for total urine protein and creatinine. Animals are randomized via body weight and baseline urine protein into study groups. Baseline serum is taken by tail-clip and analyzed for blood urea nitrogen (BUN), creatinine, and electrolytes. After baseline samples are taken, all rats with the exception of the control group are maintained on a diet containing 6% salt, and drinking water containing 0.3% KCl throughout the study duration. […] Alza mini-pumps to deliver 2.5 μl/h×28 days of d-aldosterone in 0.01% DMSO at 0.75 μg/h, s.c. are implanted in non-control animals (e.g Test Compound group and Vehicle only group) under isoflourane anesthesia. Test compound, in a vehicle comprising 1% carboxy methylcellulose (CMC)/0.25% polysorbate 80, or vehicle alone, is then administered by once daily oral gavage (10 mL/kg) beginning the day after aldosterone implantation. Repeat urine samples are collected after 2 and 4 weeks of compound or vehicle alone administration and analyzed for total urine protein and creatinine. At study termination, pharmacokinetic samples are obtained at 8 timepoints (0.5, 1, 2, 3, 6, 8, 12 and 24 h). […]

Ki [1]: ~1170 nM
SMILES: O=c1[nH]c2cc(/C=C3\c4ccccc4COc4cc(F)ccc43)ccc2n1[C@@H]1C[C@@H]2COCCN2C1 [Compound (I), 5-((E)-(3-fluorodibenzo[b,e]oxepin-11(6H)-ylidene)methyl)-1-((7R,8aR)-hexahydro-1H-pyrrolo[2,1-c][1,4]oxazin-7-yl)-1H-benzo[d]imidazol-2(3H)-one]
reduction of urinary protein excretion compared to vehicle treated animals [2]: about 60%
